Reference: patent publication US9381208B2, “Structure and use of 5′ phosphate oligonucleotides” (Rheinische Friedrich-Wilhelms-Universität, priority 2006, dated 2016)
Oligonucleotides are written 5' to 3', each unit as a sugar letter and its base; * is a phosphorothioate linkage, no mark a phosphodiester; rarer units and linkages stand in square brackets, end groups in braces. Plain capitals give the bases only. {ppp} = triphosphate group; r = 2'-OH (RNA)

Tested on: human primary monocytes
Test: IFN-α production in human primary monocytes transfected with RNA (ELISA)
Type: cell-based
Conditions: for IFN-α induction (*100%) mean: monocytes from three donors, 36 hours after transfection, normalized to the mean induction level of all oligonucleotides (=100%); for IFN-α-inducing activity conferred by the 5′ 4-nucleotide sequence: adenosine-initiated in vitro transcribed RNA oligonucleotides, FIG. 13; for IFN-α production in monocytes: 200 ng RNA transfected, 24 hours, ELISA

Substance | IFN-α induction (*100%) mean | IFN-α-inducing activity conferred by the 5′ 4-nucleotide sequence | IFN-α production in monocytes | IFN-α inducing activity after cleavage of the 5′ overhang by RNAse T1 (monocytes)
auacggggac acacacacac acacacacac (AUACGGGGACACACACACACACACACACAC; RNA, 5' {ppp}, backbone not given here) [SEQ ID No. 139] | 0.99 *100% |  |  | 
aaucggggac acacacacac acacacacac (AAUCGGGGACACACACACACACACACACAC; RNA, 5' {ppp}, backbone not given here) [SEQ ID No. 132] | 0.94 *100% |  |  | 
augcggggac acacacacac acacacacac (AUGCGGGGACACACACACACACACACACAC; RNA, 5' {ppp}, backbone not given here) [SEQ ID No. 159] | 1.23 *100% | highest IFN-α-inducing activity |  | 
aaagggggac acacacacac acacacacac (AAAGGGGGACACACACACACACACACACAC; RNA, 5' {ppp}, backbone not given here) [SEQ ID No. 173] | 1.40 *100% | highest IFN-α-inducing activity |  | 
aaggggggac acacacacac acacacacac (AAGGGGGGACACACACACACACACACACAC; RNA, 5' {ppp}, backbone not given here) [SEQ ID No. 149] | 1.11 *100% | highest IFN-α-inducing activity |  | 
acuaggggac acacacacac acacacacac (ACUAGGGGACACACACACACACACACACAC; RNA, 5' {ppp}, backbone not given here) [SEQ ID No. 117] | 0.62 *100% |  |  | 
acugggggac acacacacac acacacacac (ACUGGGGGACACACACACACACACACACAC; RNA, 5' {ppp}, backbone not given here) [SEQ ID No. 152] | 1.14 *100% | highest IFN-α-inducing activity |  | 
aacgggggac acacacacac acacacacac (AACGGGGGACACACACACACACACACACAC; RNA, 5' {ppp}, backbone not given here) [SEQ ID No. 170] | 1.34 *100% | highest IFN-α-inducing activity |  | 
auuaggggac acacacacac acacacacac (AUUAGGGGACACACACACACACACACACAC; RNA, 5' {ppp}, backbone not given here) [SEQ ID No. 171] | 1.36 *100% | highest IFN-α-inducing activity |  | 
aggaggggac acacacacac acacacacac (AGGAGGGGACACACACACACACACACACAC; RNA, 5' {ppp}, backbone not given here) [SEQ ID No. 161] | 1.27 *100% | highest IFN-α-inducing activity |  | 
aucgggggac acacacacac acacacacac (AUCGGGGGACACACACACACACACACACAC; RNA, 5' {ppp}, backbone not given here) [SEQ ID No. 162] | 1.28 *100% | highest IFN-α-inducing activity |  | 
acguggggac acacacacac acacacacac (ACGUGGGGACACACACACACACACACACAC; RNA, 5' {ppp}, backbone not given here) [SEQ ID No. 125] | 0.77 *100% |  |  | 
agaaggggac acacacacac acacacacac (AGAAGGGGACACACACACACACACACACAC; RNA, 5' {ppp}, backbone not given here) [SEQ ID No. 165] | 1.29 *100% | highest IFN-α-inducing activity |  | 
aacaggggac acacacacac acacacacac (AACAGGGGACACACACACACACACACACAC; RNA, 5' {ppp}, backbone not given here) [SEQ ID No. 166] | 1.30 *100% | highest IFN-α-inducing activity |  | 
aagaggggac acacacacac acacacacac (AAGAGGGGACACACACACACACACACACAC; RNA, 5' {ppp}, backbone not given here) [SEQ ID No. 134] | 0.95 *100% |  |  | 
aaacggggac acacacacac acacacacac (AAACGGGGACACACACACACACACACACAC; RNA, 5' {ppp}, backbone not given here) [SEQ ID No. 154] | 1.15 *100% | highest IFN-α-inducing activity |  | 
agucggggac acacacacac acacacacac (AGUCGGGGACACACACACACACACACACAC; RNA, 5' {ppp}, backbone not given here) [SEQ ID No. 140] | 1.00 *100% | highest IFN-α-inducing activity |  | 
auucggggac acacacacac acacacacac (AUUCGGGGACACACACACACACACACACAC; RNA, 5' {ppp}, backbone not given here) [SEQ ID No. 144] | 1.03 *100% | highest IFN-α-inducing activity |  | 
acccggggac acacacacac acacacacac (DNA ACCCGGGGACACACACACACACACACACAC; chemistry not fully specified) [SEQ ID No. 130] | 0.89 *100% |  |  | 

Substance | IFN-α induction (*100%) mean | IFN-α-inducing activity conferred by the 5′ 4-nucleotide sequence | IFN-α production in monocytes | IFN-α inducing activity after cleavage of the 5′ overhang by RNAse T1 (monocytes)
aguuggggac acacacacac acacacacac (AGUUGGGGACACACACACACACACACACAC; RNA, 5' {ppp}, backbone not given here) [SEQ ID No. 168] | 1.32 *100% | highest IFN-α-inducing activity |  | 
auaaggggac acacacacac acacacacac (AUAAGGGGACACACACACACACACACACAC; RNA, 5' {ppp}, backbone not given here) [SEQ ID No. 127] | 0.82 *100% |  |  | 
aggcggggac acacacacac acacacacac (AGGCGGGGACACACACACACACACACACAC; RNA, 5' {ppp}, backbone not given here) [SEQ ID No. 131] | 0.91 *100% |  |  | 
aaaaggggac acacacacac acacacacac (AAAAGGGGACACACACACACACACACACAC; RNA, 5' {ppp}, backbone not given here) [SEQ ID No. 121] | 0.73 *100% |  |  | 
aucuggggac acacacacac acacacacac (AUCUGGGGACACACACACACACACACACAC; RNA, 5' {ppp}, backbone not given here) [SEQ ID No. 133] | 0.94 *100% |  |  | 
auggggggac acacacacac acacacacac (AUGGGGGGACACACACACACACACACACAC; RNA, 5' {ppp}, backbone not given here) [SEQ ID No. 172] | 1.38 *100% | highest IFN-α-inducing activity |  | 
tri-GFPds: annealed dsRNA molecule of tri-GFPs (SEQ ID NO: 341) and tri-GFPa (SEQ ID NO: 348) (sense {ppp}-rGrGrGrGrCrUrGrArCrCrCrUrGrArArGrUrUrCrArUrCrUrU; antisense {ppp}-rGrGrGrGrArUrGrArArCrUrUrCrArGrGrGrUrCrArGrCrUrU; in vitro transcribed strands annealed as dsRNA) |  |  | comparable levels of IFN-α | completely abolished the IFN-α inducing activity
aaccggggac acacacacac acacacacac (AACCGGGGACACACACACACACACACACAC; RNA, 5' {ppp}, backbone not given here) [SEQ ID No. 156] | 1.20 *100% | highest IFN-α-inducing activity |  | 
5′-pppGGGAGACAGGGGGGGGGGGGGGGGGGGGGGG-3′ [tri-poly G] |  |  | equally potent | 
aaugggggac acacacacac acacacacac (AAUGGGGGACACACACACACACACACACAC; RNA, 5' {ppp}, backbone not given here) [SEQ ID No. 136] | 0.96 *100% |  |  | 
auugggggac acacacacac acacacacac (AUUGGGGGACACACACACACACACACACAC; RNA, 5' {ppp}, backbone not given here) [SEQ ID No. 167] | 1.31 *100% | highest IFN-α-inducing activity |  | 
auguggggac acacacacac acacacacac (AUGUGGGGACACACACACACACACACACAC; RNA, 5' {ppp}, backbone not given here) [SEQ ID No. 153] | 1.15 *100% | highest IFN-α-inducing activity |  | 
auauggggac acacacacac acacacacac (AUAUGGGGACACACACACACACACACACAC; RNA, 5' {ppp}, backbone not given here) [SEQ ID No. 129] | 0.89 *100% |  |  | 
agccggggac acacacacac acacacacac (AGCCGGGGACACACACACACACACACACAC; RNA, 5' {ppp}, backbone not given here) [SEQ ID No. 128] | 0.87 *100% |  |  | 
agacggggac acacacacac acacacacac (AGACGGGGACACACACACACACACACACAC; RNA, 5' {ppp}, backbone not given here) [SEQ ID No. 116] | 0.62 *100% |  |  | 
5′-PPPGGGAGACAGGCCCCCCCCCCCCCCCCCCCCC-3′ [tri-poly C] |  |  | equally potent | 
agugggggac acacacacac acacacacac (AGUGGGGGACACACACACACACACACACAC; RNA, 5' {ppp}, backbone not given here) [SEQ ID No. 143] | 1.01 *100% | highest IFN-α-inducing activity |  | 
5′-PPPGGG AGACAGGUUUUUUUUUUUUUUUUUUUUU-3′ (GGGAGACAGGUUUUUUUUUUUUUUUUUUUUU; RNA, 5' {ppp}, backbone not given here) [tri-poly U] |  |  | equally potent | 
